Experiments:
Type in all cases: cell-based, human
[1] = test system: Colo375FG metastatic pancreatic adenocarcinoma cells; assay: Live cell number (Coulter counter, methylene blue, PI exclusion)
Method: Colo375FG metastatic pancreatic adenocarcinoma cells are cultured in Dulbecco Modified Eagle Medium with 10% fetal bovine serum. Cells are plated at 10^5 per P100 or at 10^4 per P60 (for assays requiring up to 3 days of culture), in the presence of different concentrations of BiPar compounds and other agents, or DMSO control. Following treatment, the number of attached cells is measured using Coulter counter, and by staining with 1% methylene blue. Methylene blue is dissolved in 50%-50% mixture of Methanol and water. Cells are plated in 24- or 96-well plates and treated with compounds as indicated, then media are aspirated, cells are washed with PBS, fixed in methanol for 5-10 min, washed and the plates are allowed to dry completely. Methylene blue solution is added to wells and plates are incubated for 5 min. Staining solution is removed and plates are washed with dH2O. After plates are completely dry, a small amount of 1N HCl is added to each well to extract the methylene blue. The OD readout at 600 nm and a calibration curve are used to determine cell number.
IIIg (6-nitro-5-iodo-benzopyrone) is dissolved directly from dry powder to 10 mM stock solution in DMSO for each separate experiment, and then the entire volume of the stock solution is used to prepare working concentrations in cell culture medium to avoid any possibility of precipitation and the corresponding loss of compound. Control experiments are carried out with the matching volume/concentration of the vehicle (DMSO).
(§1) After the addition of drugs and incubation, cells are trypsinized and aliquots of the samples are taken for counting and PI (Propidium Iodide) exclusion assay. One part of the cells is centrifuged and resuspended in 0.5 ml ice-cold PBS containing 5 μg/ml of PI. The other part of the cells is fixed in ice-cold 70% ethanol and stored in a freezer overnight. For cell cycle analysis, cells are stained with propidium iodide (PI) by standard procedures. Cellular DNA content is determined by flow cytometry using BD LSRII FACS, and the percentages of cells in G1, S or G2/M are determined using ModFit software.
Colo375FG metastatic pancreatic adenocarcinoma cells are obtained from ATCC and cultured in Dulbecco Modified Eagle Medium with 10% fetal bovine serum. Cells are plated at 10^5 cells per P100 cell culture dish or at 10^4 cells per P60 cell culture dish in the presence of different concentrations compounds or DMSO control. Following treatment, the number of attached cells is measured using Coulter counter, and by staining with 1% methylene blue. Methylene blue is dissolved in 50%-50% mixture of Methanol and water. Cells are plated in 24- or 96-well plates and treated as planned, media are aspirated, cells are washed with PBS, fixed in methanol for 5-10 min, methanol is aspirated and plates are allowed to dry completely. Methylene blue solution is added to wells and plates are incubated for 5 min. Staining solution is removed and plates are washed with dH2O until washes are no longer blue. After plates are completely dry, a small amount of 1N HCl is added to each well to extract the methylene blue. The OD readout at 600 nm and a calibration curve are used to determine cell number.
Compounds of the invention are dissolved directly from dry powder to 10 mM stock solution in DMSO for each separate experiment. Control experiments are carried out with the matching volume/concentration of the vehicle (DMSO). In these controls, the cells show no changes in their growth or cell cycle distribution.
as §1, with “ug/ml” for “μg/ml”, “Cellular DNA content is determined by flow cytometry using BD LSRII FACS, and the percentages of cells in G1, S or G2/M are determined using ModFit software.” left out

[2] = test system: Colo375FG metastatic pancreatic adenocarcinoma cells; assay: TUNEL apoptosis assay (flow cytometry)
Method: Cells are labeled for apoptosis with the “In Situ Cell Death Detection Kit, Fluorescein” (Roche Diagnostics Corporation, Roche Applied Science, Indianapolis, Ind.). Briefly, fixed cells are centrifuged and washed once in phosphate-buffered saline (PBS) containing 1% bovine serum albumin (BSA), then resuspended in 2 ml permeabilization buffer (0.1% Triton X-100 and 0.1% sodium citrate in PBS) for 25 min at room temperature and washed twice in 0.2 ml PBS/1% BSA. The cells are resuspended in 50 μl TUNEL reaction mixture (TdT enzyme and labeling solution) and incubated for 60 min at 37° C. in a humidified dark atmosphere in an incubator. The labeled cells are washed once in PBS/1% BSA, then resuspended in 0.5 ml ice-cold PBS containing 1 μg/ml 4′,6-diamidino-2-phenylindole (DAPI) for at least 30 min. All cell samples are analyzed with a BD LSR II (BD Biosciences, San Jose, Calif.).
The cells are labeled for apoptosis with the “In Situ Cell Death Detection Kit, Fluorescein” (Roche Diagnostics Corporation, Roche Applied Science, Indianapolis, Ind.). Briefly, fixed cells are centrifuged and washed once in phosphate-buffered saline (PBS) containing 1% bovine serum albumin (BSA), then resuspended in 2 ml permeabilization buffer (0.1% Triton X-100 and 0.1% sodium citrate in PBS) for 25 minutes at room temperature and washed twice in 0.2 ml PBS/1% BSA. The cells are resuspended in 50 μl TUNEL reaction mixture (TdT enzyme and labeling solution) and incubated for 60 min at 37° C. in a humidified dark atmosphere in an incubator. The labeled cells are washed once in PBS/1% BSA, then resuspended in 0.5 ml ice-cold PBS containing 1 μg/ml 4,6-diamidino-2-phenylindole (DAPI) for at least 30 min. All cell samples are analyzed with a BD LSR II (BD Biosciences, San Jose, Calif.).

[3] = test system: Colo375FG metastatic pancreatic adenocarcinoma cells; assay: Bromodeoxyuridine (BrdU) labeling assay (flow cytometry); conditions: Compound IIIc 12.5 mM; one value printed beside OxaliPt 0 10 20 mM, OxaliPt level not assignable
Method: 50 μl of BrdU (Sigma Chemical Co., St. Louis, Mo.) stock solution (1 mM) is added to give 10 μM BrdU final concentration. The cells are incubated for 30 min at 37° C. and fixed in ice-cold 70% ethanol and stored in a cold room (4° C.) overnight. Fixed cells are centrifuged and washed once in 2 ml PBS, then resuspended in 0.7 ml of denaturation solution (0.2 mg/ml pepsin in 2 N HCl) for 15 min at 37° C. in the dark and suspended with 1.04 ml 1M Tris buffer (Trizma base, Sigma Chemical Co.) to terminate the hydrolysis and washed in 2 ml PBS.
(§2) Cells are resuspended in 100-μl anti-BrdU antibody (DakoCytomation, Carpinteria, Calif.) with 1:100 dilution in TBFP permeable buffer (0.5% Tween-20, 1% bovine serum albumin and 1% fetal bovine serum in PBS) and incubated for 25 min at room temperature in the dark and washed in 2 ml PBS. The primary antibody-labeled cells are resuspended in 100 μl Alexa Fluor F(ab′)2 fragment of goat anti-mouse IgG (H+L) (2 mg/mL) (Molecular Probes, Eugene, Oreg.) with 1:200 dilution in TBFP permeable buffer and incubated for 25 min at room temperature in the dark and washed in 2 ml PBS, then resuspended in 0.5 ml ice-cold PBS containing 1 μg/ml 4′,6-diamidino-2-phenylindole (DAPI) for at least 30 min. All cell samples are analyzed with a BD LSR II (BD Biosciences, San Jose, Calif.).
as §2, with “50 μl of BrdU (Sigma Chemical Co., St. Louis, Mo.) stock solution (1 mM) is added to give 10 μM BrdU final concentration. The cells are incubated for 30 min at 37 °C and fixed in ice-cold 70% ethanol and stored in a cold room (4 °C) overnight. Fixed cells are centrifuged and washed once in 2 ml PBS, then resuspended in 0.7 ml of denaturation solution (0.2 mg/ml pepsin in 2 N HCl) for 15 min at 37° C. in the dark and suspended with 1.04 ml 1M Tris buffer (Trizma base, Sigma Chemical Co.) and washed in 2 ml PBS. Then cells” for “Cells”

[4] = Compound IIIc 12.5 mM, OxaliPt 0 mM
[5] = combination: Compound IIIc 12.5 mM + OxaliPt 10 mM
[6] = combination: Compound IIIc 12.5 mM + OxaliPt 20 mM

O=c1ccc2c(CCCCN3CC=C(c4ccccc4)CC3)c([N+](=O)[O-])ccc2o1 [IIIc]
Live Cell (%) [1, 4]: 54%
Live Cell (%) [1, 5]: 33%
Live Cell (%) [1, 6]: 25%
Dead cells TUNEL (%) [2, 4]: 2.7%
Dead cells TUNEL (%) [2, 5]: 16.1%
Dead cells TUNEL (%) [2, 6]: 28.2%
Cells in S-phase of cell cycle (% BrdU+) [3]: 73.87%
